Source: patent publication US20230346820A1, “METHODS AND COMPOSITIONS FOR THE TREATMENT OF SARS-COV-2” (priority 2020, published 2023)
Structures can show the parent of a compound that is named as a salt. Where two headings read alike, the source gives them in different places.

Legend:
[1] = test system: SARS-CoV-2; conditions: for EC50: read-out: Calu-3 CoV-2 EC50
[2] = test system: HeLa-ACE2 cells
[3] = test system: SARS-CoV-2
[4] = test system: Calu-3 cells
Experimental: (§1) To assess cell viability, 2 μL of 50% Cell-Titer Glo (Promega No G7573) diluted in water was added to the cells and luminescence measured on an EnVision Plate Reader (Perkin Elmer).
(§2) Data analysis. […] Primary in vitro screen and the host cell cytotoxicity counter screen data were uploaded to Genedata Screener, Version 16.0.3-Standard. […] For the uninfected host cell cytotoxicity counter screens, 40 μM puromycin (Sigma) was used as the positive (inhibitory) control in HeLa-ACE2, HepG2 and HEK293T cells, and 30 μM puromycin (Sigma) was used as the positive (inhibitory) control for Calu-3 cells. For dose response experiments compounds were tested in technical triplicates on different assay plates and dose curves were fitted with the four parameter Hill Equation. Technical replicate data were analyzed using median condensing. Geometric means and geometric standard deviations are reported for compound activities (EC50s and CC50s) obtained in multiple independent biological experiments. […] Geometric means were calculated by computing the logarithm (base 10) of all values, calculating the mean of these logarithms, and taking the antilog of that mean. Geometric standard deviations were computed by taking the standard deviation of the log-transformed individual values and taking the antilog of that standard deviation. The geometric standard deviation is a unitless ratio and reported as ×÷ instead of +/−.

[5] = test system: SARS-CoV-2; experiment: Checkerboard synergy study with remdesivir (ZIP model, synergyfinder); assay type: cell-based
[6] = test system: SARS-CoV-2; experiment: microbe, parasite or virus in culture
[7] = in vitro; conditions: human
[8] = human, oral; cited from earlier work
[9] = test system: HeLa-ACE2 cells; experiment: cells; assay type: cell-based, human
[10] = test system: SARS-CoV-2; experiment: microbe, parasite or virus in culture; conditions: Severe acute respiratory syndrome coronavirus 2, Calu-3, 48 h, read-out: Calu-3 CoV-2 EC50 [μM]
[11] = in vitro; conditions: human; remark: listed apart in the source
Experimental: as §1, §2

[12] = Table 4, aggregated data, Geomean, n = 3, 48 h
[13] = read-out: HeLa-ACE2 Uninfected Tox CC50, Table 4, aggregated data, Geomean, n = 3
[14] = read-out: HeLa-ACE2 CoV-2 EC50, Table 4, aggregated data, Geomean, n = 3
[15] = read-out: Calu-3 Uninfected Tox CC50, Table 4, aggregated data, Geomean, n = 3
[16] = Severe acute respiratory syndrome coronavirus 2, HeLa-ACE2, 24 h, read-out: CoV-2 EC50 [μM] (Geomeans, n ≥ 2)
[17] = CC50 [μM] (Geomeans, n ≥ 2 except where indicated: *n = 1)
[18] = Severe acute respiratory syndrome coronavirus 2, HeLa-ACE2, read-out: SARS CoV-2 EC50 (μM)
[19] = Homo sapiens, HeLa-ACE2, read-out: HeLa-ACE-2 EC50 [μM] (Geomeans, n ≥ 2)
[20] = Table 1, ZIP model, δ>10 synergy, δ<−10 antagonism, between additive
[21] = read-out: HeLa-ACE-2 EC50 [μM] (Geomeans, n ≥ 2)

Compound	EC50 [6, 16] [µM]	HeLa-ACE2 CC50/CoV-2 EC50 [3]	CC50 [7, 17] [µM]	EC50 [6, 18] [µM]	Synergy score with remdesivir (δ) ([5]; Table 3)	Cmax [8] [nM]	t1/2 [8]	CC50 ([7]; Uninfected HeLa-ACE2 CC50 (μM)) [µM]	further results
CSc1ncnc2c1ncn2[C@@H]1O[C@H](CO)[C@@H](O)[C@H]1O [6-Methyl mercaptopurineriboside]	–	–	–	–	–	–	–	–	Calu3 SI CC50/CoV-2 EC50 ([1]; Table 4): 5.80; EC50 [1, 12]: 0.207 µM; CC50 [2, 13]: 15.4 µM; HeLa-ACE2 SI CC50/CoV-2 EC50 ([3]; Table 4): 4.27; EC50 [3, 14]: 3.6 µM; CC50 [4, 15]: 1.2 µM
Nc1nc(N)c2nc(CCc3ccc(C(=O)N[C@@H](CCC(=O)O)C(=O)O)cc3)cnc2n1 [10-deazaaminopterin]	–	–	–	–	–	–	–	–	interaction with remdesivir [5]: synergized; maximal efficacy ([5]; compound alone, over the range of concentrations tested): 40%; maximal efficacy ([5]; with addition of EC2 of remdesivir): ~65%; maximal efficacy ([5]; with addition of EC24 of remdesivir): > 80%
Oc1ccc(Nc2ccnc3cc(Cl)ccc23)cc1CN1CCCC1 [AMOPYROQUINE]	0.904	19.02	–	–	–	–	–	–	CC50 ([2]; human): 17.2 µM
CCN(CC)CCCNc1ccnc2cc(Cl)ccc12 [AQ-13]	0.8	32.34	25.9	0.8	−1.77	–	–	–	–
CCOc1ccc(Cc2nc3cc(N(C)S(=O)(=O)c4cccs4)ccc3n2CC2CCCCC2)nc1 [AZ-11713908]	–	–	–	–	–	–	–	–	Calu3 SI CC50/CoV-2 EC50 ([1]; Table 4): >8; EC50 [1, 12]: 3.54 µM; CC50 [2, 13]: 33 µM; EC50 [3, 14]: > 9.59 µM; CC50 [4, 15]: > 29.9 µM
Cn1cnc([N+](=O)[O-])c1Sc1ncnc2[nH]cnc12 [Azathioprin]	–	–	–	–	–	–	–	–	Calu3 SI CC50/CoV-2 EC50 [1]: 7.35; EC50 [1]: 0.482 µM; CC50 [2]: 39 µM; HeLa-ACE2 SI CC50/CoV-2 EC50 [3]: 7.67; EC50 ([3]; read-out: HeLa-ACE2 CoV-2 EC50): 5.08 µM; CC50 [4]: 3.55 µM
Nc1nc(Nc2ccc3c(c2)CC[C@@H](N2CCCC2)CC3)nn1-c1cc2c(nn1)-c1ccccc1CCC2 [BGB324/R-428]	1.2	13.05	15.7	1.2	7.223	~750	~80 h (oral, humans)(30)	–	–
COc1ccc2c(c1)[C@]1(CC1c1ccc3c(/C=C/c4ccc(CN5C[C@@H](C)O[C@@H](C)C5)cc4)n[nH]c3c1)C(=O)N2 (stereo partly drawn) [CFI-400945]	> 7	<1.02	7.18	–	–	–	–	–	Calu3 SI CC50/CoV-2 EC50 ([1]; Table 4): >5.88; CC50 ([7]; HeLa-ACE2 Uninfected Tox CC50 [μM]): 7.18 µM; EC50 ([6]; Severe acute respiratory syndrome coronavirus 2, HeLa-ACE2, read-out: HeLa-ACE2 CoV-2 EC50 [μM]): > 7 µM; EC50 [9, 19]: > 0.117 µM; EC50 [10]: 3.36 µM; HeLa-ACE2 SI CC50/CoV-2 EC50 [3]: <1.02; CC50 [11]: > 19.8 µM
CN1CCN(c2ccc(C(=O)NCc3cnc(C#N)nc3NCC(C)(C)C)cc2)CC1 [Dutacatib]	2.69	>13.43	> 36.1	2.69	2.955	–	–	> 36.1	–
CCc1ccc2c(c1)N(CC(C)CN(C)C)c1ccccc1S2 (stereo not drawn) [Ethylisobutrazine Hydrochloride]	2	10.48	–	–	–	–	–	–	CC50 ([2]; human): 20.9 µM
CCCCN(CCCC)CCC(O)c1cc2c(Cl)cc(Cl)cc2c2cc(C(F)(F)F)ccc12 (stereo not drawn) [Halofantrine HCl]	1.16	>20.66	> 23.9	1.16	−3.509	~1000	~72 h (human oral)(16, 17)	> 23.9	–
CCCCC1CCc2cc(O)cc3c(CCN4CCN(c5cc(C)ccn5)CC4)c(C)n1c23 (stereo not drawn) [KC 11404]	2.5	>8.39	> 20.9	2.5	−2.817	–	–	> 20.9	–
NC1(c2ccc(-c3nc4ccn5c(=O)[nH]nc5c4cc3-c3ccccc3)cc2)CCC1 [MK-2206]	–	>20.63	–	–	2.087	~571	~75 h (human, oral)(29)	–	Synergy score with remdesivir (δ) [5, 20]: 2.087; EC50 [9, 21]: > 9.59 µM; CC50 [2]: > 22.8 µM; EC50 ([3]; read-out: CoV-2 EC50 [μM] (Geomeans, n ≥ 2)): 1.1 µM; EC50 ([3]; read-out: SARS CoV-2 EC50): 1.1 µM
CCOC(=O)[C@@H]1O[C@H]1C(=O)N[C@@H](CC(C)C)C(=O)N1CCN(Cc2ccc(OC)c(OC)c2OC)CC1 [NCO 700]	0.79	>50.44	> 39.8	0.79	0.209	–	–	> 39.8	–
C=CC(=O)Nc1cc(Nc2nccc(-c3cn(C)c4ccccc34)n2)c(OC)cc1N(C)CCN(C)C [Osimertinib]	0.962	>18.79	> 18.1	0.962	−0.722	~1500	~42 h (human, oral)(33, 34)	> 18.1	Synergy score with remdesivir (δ) [5, 20]: −0.722
CC(C)Oc1ccc(-c2nc(-c3cccc4c3CC[C@@H]4NCCO)no2)cc1C#N [Ozanimod]	2.63	>5.60	> 14.7	2.63	−4.62	~1200	~21 h (human, oral)(24)	> 14.7	–
Nc1cc(OCC2CC2)c(C(=O)NC2CN3CCC2CC3)cc1Cl (stereo not drawn) [Pancopride]	> 8.64	4.32	> 37.3	> 8.64	0.65	~300	~16 h (human, oral)(26)	> 37.3	Synergy score with remdesivir (δ) [5, 20]: 0.648; EC50 [9, 19]: > 9.59 µM
CC(C)(C)Cn1c(N)nc2ccc(-c3[nH]c(C(C)(C)C)nc3-c3ccc(F)cc3)nc21 [Ralimetinib mesylate/LY2228820, Ralimetinib mesylate]	1.87	14.6	27.4	–	−0.846	~5000	~145 h (human, oral)(28)	–	activity in Calu-3 infection assay [1]: active; Synergy score with remdesivir (δ) [5, 20]: −0.846; activity in HeLa-ACE2 infection assay [3]: active
COC(=O)[C@H]1[C@H]2C[C@@H]3c4[nH]c5cc(OC)ccc5c4CCN3C[C@H]2C[C@@H](OC(=O)c2cc(OC)c(OC)c(OC)c2)[C@@H]1OC [Reserpine]	–	>6.60	–	–	–	–	–	–	EC50 [9, 21]: > 9.6 µM; CC50 [2]: > 36.4 µM; EC50 ([3]; read-out: CoV-2 EC50 [μM] (Geomeans, n ≥ 2), Table 1, HeLa-ACE2, 24 h): > 5.51 µM
COc1ccc2c(O[C@@H]3C[C@H]4C(=O)N[C@]5(C(=O)NS(=O)(=O)C6CC6)C[C@H]5/C=C\CCCCN(C)C(=O)[C@@H]4C3)cc(-c3nc(C(C)C)cs3)nc2c1C [Simeprevir]	> 7.88	>2.81	> 22.2	–	–	~32000	~16 h (human oral)(21, 22)	> 22.2	–
CN(C)CCOc1ccc2c(=O)c3ccc(OCCN(C)C)cc3oc2c1 [TILORINE DIHYDROCHLORIDE]	0.884	11.07	–	–	–	–	–	–	CC50 ([2]; human): 9.79 µM
CC(CN(C)C)CN1c2ccccc2CCc2ccccc21 (stereo not drawn) [Trimipramine]	2.11	10.11	–	–	–	–	–	–	CC50 ([2]; human): 21.3 µM
COC(=O)C1=C(C)NC(C)=C(C(=O)OC)C1c1cc([N+](=O)[O-])ccc1OCCCCNC[C@H](O)COc1ccccc1 [YM 161514]	1.86	6.08	11.3	1.86	0.60	–	–	11.3	Synergy score with remdesivir (δ) [5, 20]: 0.601; EC50 [9, 19]: > 8.47 µM
COc1ccc2c(c1)CN(C)CC2c1ccc(Cl)c(Cl)c1 (stereo not drawn) [diclofensine]	> 7.89	<1.28	10.1	6.06	–	~30	~15 h (human, oral)(25)	> 40	EC50 [9, 19]: > 9.59 µM
COC(=O)C1=C(C)NC(C)=C(C(=O)OCCN2CCN(C(c3ccccc3)c3ccccc3)CC2)C1c1cccc([N+](=O)[O-])c1 (stereo not drawn) [manidipine]	> 6.89	>2.48	> 17.1	> 6.89	−4.727	~10	~3 h (human, oral)(23)	> 17.1	Synergy score with remdesivir (δ) [5, 20]: −4.727
Cc1c(O)cccc1C(=O)N[C@@H](CSc1ccccc1)[C@H](O)CN1C[C@H]2CCCC[C@H]2C[C@H]1C(=O)NC(C)(C)C [nelfinavir mesylate]	> 8.64	>2.08	> 18	–	–	~17000	~4 h (human oral)(20)	> 18	Synergy score with remdesivir (δ) [5, 20]: −1.233
